Assay [1] has as its system rat model of chronic constriction injury. To be noted: Anesthesia and Analgesia 2001, 93, 1012-7; cited from earlier work.
Assay [2] has as its system rodent model of post-operative pain. The conditions noted are these: Anesthesia and Analgesia 2001, 92, 233-238; cited from earlier work.
In the next assay the test system is gastric lesions in rats. To be noted: lesions induced by taurocholate acid, aspirin or indomethacin, J Pharmacol Exp Ther 1992, 263(1), 374-380; cited from earlier work.
Assay [3] has as its target T1, human EP1 receptor (Homo sapiens, UniProt P34995).
T1 construct: expressed in transfected cells; host or cells: CHO-K1
T1 sequence (P34995 1-402): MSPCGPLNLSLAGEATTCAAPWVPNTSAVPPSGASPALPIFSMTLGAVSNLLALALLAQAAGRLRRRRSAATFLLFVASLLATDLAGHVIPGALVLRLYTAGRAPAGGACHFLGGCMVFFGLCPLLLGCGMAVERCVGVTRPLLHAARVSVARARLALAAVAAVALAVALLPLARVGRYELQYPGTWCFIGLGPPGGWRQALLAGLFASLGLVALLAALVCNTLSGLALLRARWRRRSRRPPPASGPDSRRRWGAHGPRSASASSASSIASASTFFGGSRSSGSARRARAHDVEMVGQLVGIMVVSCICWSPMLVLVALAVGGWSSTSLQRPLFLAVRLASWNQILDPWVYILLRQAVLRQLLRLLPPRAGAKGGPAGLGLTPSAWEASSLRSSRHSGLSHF
The experiment in a line: human EP1 calcium mobilisation assay. It is filed as cell-based. To be noted: human EP1, PGE2-induced calcium mobilisation in CHO-K1 cells; free bases or sodium salts; averages of a number of experiments; read-out: functional pKi value (converted). In a few lines:
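CHO-K1 cells stably expressing human EP1, loaded with Fluo-4 after 24 h at 37° C; compounds added before PGE2 challenge. Inhibition of PGE2-induced [Ca2+]i rise read by FLIPR fluorescence; pIC50 from curve fitting of half-maximal inhibition.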
(In general: Calcium assays in cells follow changes in intracellular calcium, usually with a dye or a luminescent sensor.)

Assay [4] addresses T1, human EP1 receptor. Kind of assay: Binding assay for the human prostanoid EP1 receptor (competition with [3H]-PGE2). The conditions noted are these: binding to human EP1 receptor, [3H]-PGE2 competition, CHO-K1 cell membranes; averages of a number of experiments; read-out: pIC50 value (converted). Here is the method: Competition assay using [^3H]-PGE2.
Compound potencies are determined using a radioligand binding assay. In this assay compound potencies are determined from their ability to compete with tritiated prostaglandin E2 ([^3H]-PGE2) for binding to the human EP1 receptor.
This assay utilises Chinese hamster ovary-K1 (CHO-K1) cells into which a stable vector containing the EP1 cDNA has previously been transfected. Cells are cultured in suitable flasks containing culture medium such as DMEM:F-12 supplemented with 10% v/v foetal calf serum, 2 mM L-glutamine, 0.25 mg/ml geneticin, 10 μg/ml puromycin and 10 μM indomethacin.
Cells are detached from the culture flasks by incubation in calcium and magnesium free phosphate buffered saline containing 1 mM disodium ethylenediaminetetraacetic acid (Na2EDTA) and 10 μM indomethacin for 5 min. The cells are isolated by centrifugation at 250×g for 5 mins and suspended in an ice cold buffer such as 50 mM Tris, 1 mM Na2EDTA, 140 mM NaCl, 10 μM indomethacin (pH 7.4). The cells are homogenised using a Polytron tissue disrupter (2×10 s burst at full setting), centrifuged at 48,000×g for 20 mins and the pellet containing the membrane fraction is washed (optional) three times by suspension and centrifugation at 48,000×g for 20 mins. The final membrane pellet is suspended in an assay buffer such as 10 mM 2-[N-morpholino]ethanesulphonic acid, 1 mM Na2EDTA, 10 mM MgCl2 (pH 6). Aliquots are frozen at −80° C. until required.
For the binding assay the cell membranes, competing compounds and [^3H]-PGE2 (3 nM final assay concentration) are incubated in a final volume of 100 μl for 30 min at 30° C. All reagents are prepared in assay buffer. Reactions are terminated by rapid vacuum filtration over GF/B filters using a Brandell cell harvester. The filters are washed with ice cold assay buffer, dried and the radioactivity retained on the filters is measured by liquid scintillation counting in Packard TopCount scintillation counter.
The data are analysed using non linear curve fitting techniques to determine the concentration of compound producing 50% inhibition of specific binding (IC50).

Counter-ions that a name gives are not always drawn.

As to `Cc1cc(Cl)ccc1S(=O)(=O)NC[C@H]1C2CCC(CC2)[C@@H]1/C=C\CCCC(=O)O` [ONO-8711], the hyperalgesia and allodynia result in assay [1] was “reduces hyperalgesia and allodynia”. For the same compound, the mechanical hyperalgesia entry in assay [2] is given as “inhibits mechanical hyperalgesia”.

Regarding `O=C(O)Cc1ccc(CCNS(=O)(=O)c2ccc(Cl)cc2)cc1` [BM 13505], in the assay on gastric lesions in rats, the gastric lesions result was “inhibit gastric lesions”.

In the case of `CC(C)COc1ccc(Cl)cc1Cc1ccc(C(=O)O)o1` [Example 10, Sodium 5-({5-chloro-2-[(2-methylpropyl)oxy]phenyl}methyl)-2-furancarboxylate], the Ki on human EP1 receptor [3] was < 1000 nM. Also, at human EP1 receptor [4], the IC50 was ≤ 10 nM.

For `CC(C)COc1ccc(Cl)cc1Cc1ccc(-c2nc3ccc(CN4CCCC4)cc3[nH]2)o1` [Example 143, 2-[5-({5-Chloro-2-[(2-methylpropyl)oxy]-phenyl}methyl)-2-furanyl]-5-(1-pyrrolidinylmethyl)-1H-benzimidazoledihydrochloride], the Ki on human EP1 receptor [3] is < 1000 nM. The IC50 on human EP1 receptor [4] is ≤ 10 nM.

In the case of `CCC(CC)COc1ccc(Cl)cc1Cc1ccc(C(=O)O)o1` [Example 7, Sodium 5-({5-chloro-2-[(2-ethylbutyl)oxy]phenyl}methyl)-2-furancarboxylate], the Ki at human EP1 receptor [3] is ≤ 10 nM. For the same compound, the IC50 at human EP1 receptor [4] is ≤ 10 nM.

On to `CC(C)COc1ccc(Cl)cc1Cc1ccc(-c2nc3ccc(CCO)cc3[nH]2)o1` [Example 115, 2-{2-[5-({5-Chloro-2-[(2-methylpropyl)oxy]-phenyl}methyl)-2-furanyl]-1H-benzimidazol-5-yl}ethanolhydrochloride], for which the Ki at human EP1 receptor [3] is < 1000 nM. Moreover, the IC50 on human EP1 receptor [4] was ≤ 10 nM.

Consider `CCN1CCN(Cc2ccc3nc(-c4ccc(Cc5cc(Cl)ccc5OCC(C)C)o4)[nH]c3c2)CC1` [Example 146, 2-[5-({5-Chloro-2-[(2-methylpropyl)oxy]-phenyl}methyl)-2-furanyl]-5-[(4-ethyl-1-piperazinyl)methyl]-1H-benzimidazoletrihydrochloride], for which the Ki on human EP1 receptor [3] was < 1000 nM. Besides, the IC50 at human EP1 receptor [4] is ≤ 10 nM.

Turning to `O=C(O)c1ccc(Cc2cc(Cl)ccc2OCC2CC2)o1` [Example 3, Sodium 5-({5-chloro-2-[(cyclopropylmethyl)oxy]phenyl}methyl)-2-furancarboxylate], on human EP1 receptor [3], the Ki is < 1000 nM. The IC50 on human EP1 receptor [4] is ≤ 10 nM.

With `O=C(O)c1ccc(Cc2cc(Cl)ccc2OCc2ccc(F)cc2F)o1` [Example 19, Sodium 5-[(5-chloro-2-{[(2,4-difluorophenyl)methyl]oxy}phenyl)methyl]-2-furancarboxylate], on human EP1 receptor [3], the Ki is < 1000 nM. The IC50 on human EP1 receptor [4] is ≤ 10 nM.

As to `COc1ccc2[nH]c(-c3ccc(Cc4cc(Cl)ccc4OCC(C)C)o3)nc2c1` [Example 105, 2-[5-({5-Chloro-2-[(2-methylpropyl)oxy]-phenyl}methyl)-2-furanyl]-5-(methyloxy)-1H-benzimidazole], the Ki on human EP1 receptor [3] is < 1000 nM. The IC50 on human EP1 receptor [4] was ≤ 10 nM.

Take `O=C(Nc1c(F)cccc1F)c1ccc(Cc2cc(Cl)ccc2OCc2ccc(Cl)cc2F)o1` [Example 84, 5-[(5-Chloro-2-{[(4-chloro-2-fluorophenyl)methyl]oxy}-phenyl)methyl]-N-(2,6-difluorophenyl)-2-furancarboxamide]: the Ki on human EP1 receptor [3] is < 1000 nM. For the same compound, the IC50 at human EP1 receptor [4] is ≤ 10 nM.

Turning to `CC(C)COc1ccc(Cl)cc1Cc1ccc(-c2nc3cc(N4CCN(C)CC4)ccc3[nH]2)o1` [Example 111, 2-[5-({5-Chloro-2-[(2-methylpropyl)oxy]-phenyl}methyl)-2-furanyl]-5-(4-methyl-1-piperazinyl)-1H-benzimidazoletrihydrochloride], the Ki at human EP1 receptor [3] is < 1000 nM. Also, the IC50 at human EP1 receptor [4] is ≤ 10 nM.

In the case of `CNCc1ccc2[nH]c(-c3ccc(Cc4cc(Cl)ccc4OCC(C)C)o3)nc2c1` [Example 166, ({2-[5-({5-Chloro-2-[(2-methylpropyl)oxy]phenyl}methyl)-2-furanyl]-1H-benzimidazol-5-yl}methyl)methylamine dihydrochloride], the Ki at human EP1 receptor [3] was < 1000 nM. Also, the IC50 on human EP1 receptor [4] is ≤ 10 nM.

For the compound `CC(C)COc1ccc(Cl)cc1Cc1ccc(C(=O)NCc2ccccc2)o1` [Example 57, 5-({5-Chloro-2-[(2-methylpropyl)oxy]-phenyl}methyl)-N-(phenylmethyl)-2-furancarboxamide], at human EP1 receptor [3], the Ki is ≤ 10 nM. Also, the IC50 at human EP1 receptor [4] was ≤ 10 nM.

In the case of `CC(C)COc1ccc(Cl)cc1Cc1ccc(-c2nc3c(F)cccc3[nH]2)o1` [Example 108, 2-[5-({5-Chloro-2-[(2-methylpropyl)oxy]-phenyl}methyl)-2-furanyl]-4-fluoro-1H-benzimidazole], the Ki on human EP1 receptor [3] was < 1000 nM. Moreover, at human EP1 receptor [4], the IC50 was ≤ 10 nM.

Take `CC(C)COc1ccc(Cl)cc1Cc1ccc(-c2nc3ccc(CN(C)CCC#N)cc3[nH]2)o1` [Example 149, 3-[({2-[5-({5-Chloro-2-[(2-methylpropyl)oxy]-phenyl}methyl)-2-furanyl]-1H-benzimidazol-5-yl}methyl)(methyl)-amino]propanenitriledihydrochloride]: the Ki at human EP1 receptor [3] was < 1000 nM. In addition, the IC50 on human EP1 receptor [4] was ≤ 10 nM.

On to `O=C(O)c1ccc(Cc2cc(Cl)ccc2OCc2cc(F)c(F)cc2F)o1` [Example 25, Sodium 5-[(5-chloro-2-{[(2,4,5-trifluorophenyl)methyl]oxy}phenyl)methyl]-2-furancarboxylate], for which the Ki at human EP1 receptor [3] is ≤ 10 nM. Besides, on human EP1 receptor [4], the IC50 is ≤ 10 nM.

For the compound `CC(C)COc1ccc(Cl)cc1Cc1ccc(-c2nc3ccc(N(C)C)cc3[nH]2)o1` [Example 113, 2-[5-({5-Chloro-2-[(2-methylpropyl)oxy]-phenyl}methyl)-2-furanyl]-N,N-dimethyl-1H-benzimidazol-5-aminedihydrochloride], the Ki at human EP1 receptor [3] is < 1000 nM. The IC50 on human EP1 receptor [4] was ≤ 10 nM.

Take `O=C(O)c1ccc(Cc2cc(Cl)ccc2OCc2c(F)cc(F)cc2F)o1` [Example 20, Sodium 5-[(5-chloro-2-{[(2,4,6-trifluorophenyl)methyl]oxy}phenyl)methyl]-2-furancarboxylate]: the Ki at human EP1 receptor [3] was < 1000 nM. In addition, at human EP1 receptor [4], the IC50 is ≤ 10 nM.

Turning to `CC(C)COc1ccc(Cl)cc1Cc1ccc(-c2nc3nc(Br)cnc3[nH]2)o1` [Example 136, 5-Bromo-2-[5-({5-chloro-2-[(2-methylpropyl)oxy]phenyl}methyl)-2-furanyl]-1H-imidazo[4,5-b]pyrazine hydrochloride], the Ki at human EP1 receptor [3] was > 1000 nM. The IC50 at human EP1 receptor [4] is ≤ 10 nM.

For `CC(C)COc1ccc(Cl)cc1Cc1ccc(-c2nc3ccc(CN4CCCCC4)cc3[nH]2)o1` [Example 147, 2-[5-({5-Chloro-2-[(2-methylpropyl)oxy]-phenyl}methyl)-2-furanyl]-5-(1-piperidinylmethyl)-1H-benzimidazoledihydrochloride], the Ki at human EP1 receptor [3] is < 1000 nM. For the same compound, at human EP1 receptor [4], the IC50 was ≤ 10 nM.

Source of the values: patent US20080287430A1, “Furan Compounds Useful As Ep1 Receptor Antagonists” (priority 2005, published 2008).
